Results from patent US20240102075A1, “METHOD FOR QUANTIFYING 25-HYDROXYVITAMIN D, HYDROXYLASE, QUANTIFICATION COMPOSITION, QUANTIFICATION KIT, ELECTRODE, SENSOR CHIP, AND SENSOR” (KIKKOMAN CORPORATION, priority 2021, published 2024).

What was measured:
[1] = cited from earlier work
[2] = hydroxylase activity using ferredoxin as a mediator, absorbance at 340 nm; format: biochemical; details: 0.5 mM 25-hydroxyvitamin D3, ferredoxin/ferredoxin reductase/NADPH, 90 seconds, 30° C.
Procedure: VDH obtained by the above-described method and ferredoxin were used to measure hydroxylase activity using 25-hydroxyvitamin D3, which is a vitamin D derivative, as a substrate.
4.19 mg of 25-hydroxyvitamin D3 was dissolved in 1 ml of DMSO (final concentration: 10 mM). Since 25-hydroxyvitamin D3 is lipid-soluble, it was diluted to 1 mM (concentration at the time of measurement: 0.5 mM) using 4.0% (v/v) TritonX-100 solution to maintain solubility.
After incubating 500 μl of the measurement reagent consisting of the composition of Table 2 at 30° C. for 3 minutes, 500 μl of the substrate reagent was added, and the absorbance (Abs) at the wavelength 340 nm was measured over time for 90 seconds using a spectrophotometer (U-3900, manufactured by Hitachi High-Tech Science Corporation). […] Therefore, it was shown that 25-hydroxyvitamin D can be quantified by hydroxylase activity of VDH using ferredoxin as a mediator.

Molecule: 1,25-dihydroxyvitamin D
- half-life in the blood ([1]; in blood): about 15 hours

Molecule: 25-hydroxyvitamin D
- blood half-life ([1]; in vivo): 2-3 weeks

B1: VDH: Vitamin D hydroxylase derived from Pseudonocardia autotrophica NBRC12743 strain, SEQ ID NO: 1, expressed in E. coli (protein, listed as Pseudonocardia autotrophica)
chain: MALTTTGTEQHDLFSGTFWQNPHPAYAALRAEDPVRKLALPDGPVWLLTRYADVREAFVDPRLSKDWRHTLPEDQRADMPATPTPMMILMDPPDHTRLRKLVGRSFTVRRMNELEPRITEIADGLLAGLPTDGPVDLMREYAFQIPVQVICELLGVPAEDRDDFSAWSSVLVDDSPADDKNAAMGKLHGYLSDLLERKRTEPDDALLSSLLAVSDEDGDRLSQEELVAMAMLLLIAGHETTVNLIGNGVLALLTHPDQRKLLAEDPSLISSAVEEFLRFDSPVSQAPIRFTAEDVTYSGVTIPAGEMVMLGLAAANRDADWMPEPDRLDITRDASGGVFFGHGIHFCLGAQLARLEGRVAIGRLFADRPELALAVGLDELVYRESTLVRGLSRMPVTMGPRSA
- change in absorbance (A340) compared to the blank [2]: significant change in absorbance
